Measurements published in US8575091B1, “Amylin analogues and pharmaceutical compositions thereof” (Novo Nordisk A/S, priority 2012, dated 2013).
Numbered stars: 1 amine (or outer) side, 2 acyl side, 3 side chain; on linkers, the order of the positions; unused ones are H or OH. Bridge positions count the residues as written; N and C are the ends. Side chains are listed from the residue outwards. Peptide text beside a SMILES is read from it. * marks the point of attachment. C20 diacid = O=C(O)CCCCCCCCCCCCCCCCCCC(=O)*; γGlu = O=C(O)[C@H](CCC(=O)[*:2])N[*:1]

Target: T1, human amylin receptor (amylin 3(a) receptor: human calcitonin receptor + RAMP-3) (Homo sapiens, UniProt O60896+P30988)
T1 construct: expressed in transfected cells
T1 sequence (P30988 25-474): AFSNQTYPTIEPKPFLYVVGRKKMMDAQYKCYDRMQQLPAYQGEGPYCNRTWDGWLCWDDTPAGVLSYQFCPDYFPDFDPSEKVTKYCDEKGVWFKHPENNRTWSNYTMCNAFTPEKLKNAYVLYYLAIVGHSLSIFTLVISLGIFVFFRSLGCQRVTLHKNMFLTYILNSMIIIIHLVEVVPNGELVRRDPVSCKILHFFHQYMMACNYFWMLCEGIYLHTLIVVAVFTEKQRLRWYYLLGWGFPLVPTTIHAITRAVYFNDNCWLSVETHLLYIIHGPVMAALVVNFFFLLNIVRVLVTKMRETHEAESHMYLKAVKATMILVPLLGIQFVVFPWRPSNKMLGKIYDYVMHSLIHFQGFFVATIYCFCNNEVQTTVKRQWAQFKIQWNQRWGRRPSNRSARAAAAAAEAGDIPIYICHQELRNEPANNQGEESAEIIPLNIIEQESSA
T1 sequence (O60896 24-148 partner): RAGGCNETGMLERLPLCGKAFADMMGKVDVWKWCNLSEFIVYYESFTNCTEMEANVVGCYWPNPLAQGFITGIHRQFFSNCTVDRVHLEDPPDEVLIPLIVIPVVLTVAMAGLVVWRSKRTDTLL
Assay: Assay (II)a functional assay, human amylin receptor (CRE luciferase, BHK cells)
Assay type: cell-based

[1] = Table 6, human functional selectivity (hCTR EC50 / hAmylin-R EC50)
[2] = Table 6a, human functional selectivity (hCTR EC50 / hAmylin-R EC50), at least 5
[3] = Table 6j, hCTR funct. EC50 / hAmylin-R funct. EC50
[4] = Table 6k, hCTR funct. EC50 / hAmylin-R funct. EC50

| Ratio hCT/hAmylin funct. [1] | Ratio hCT/hAmylin funct. [2] | Ratio hCT/hAmylin funct. (hCTR funct. EC50 divided by hAmylin-R funct. EC50) | Ratio hCT/hAmylin funct. (Table 6i, hCTR funct. EC50 / hAmylin-R funct. EC50) | Ratio hCT/hAmylin funct. [3] | Ratio hCT/hAmylin funct. [4] | SMILES |
| --- | --- | --- | --- | --- | --- | --- |
| 12.0 | 12.0 | 12.0 |  |  |  | CC(C)C[C@H](NC(=O)[C@H](CCCNC(=N)N)NC(=O)[C@H](CCC(N)=O)NC(=O)[C@@H](NC(=O)[C@H](C)NC(=O)[C@@H]1CSSC[C@H](NC(=O)[C@@H](N)CCCCNC(=O)CC[C@H](NC(=O)CC[C@H](NC(=O)CCCCCCCCCCCCCCCCCCC(=O)O)C(=O)O)C(=O)O)C(=O)N[C@@H](CC(N)=O)C(=O)N[C@@H]([C@@H](C)O)C(=O)N[C@@H](C)C(=O)N[C@@H]([C@@H](C)O)C(=O)N1)[C@@H](C)O)C(=O)N[C@@H](C)C(=O)N[C@@H](CC(=O)O)C(=O)N[C@@H](Cc1ccccc1)C(=O)N[C@@H](CC(C)C)C(=O)N[C@@H](CCCNC(=N)N)C(=O)N[C@@H](Cc1c[nH]cn1)C(=O)N[C@@H](CO)C(=O)N[C@@H](CO)C(=O)N1CCC[C@H]1C(=O)N[C@@H](CC(N)=O)C(=O)N[C@@H](Cc1ccccc1)C(=O)NCC(=O)N[C@@H](C)C(=O)N1CCC[C@H]1C(=O)N[C@@H](CC(C)C)C(=O)N[C@@H](CO)C(=O)N[C@@H](CO)C(=O)N[C@H](C(=O)N[C@@H](CC(N)=O)C(=O)N[C@H](C(=O)NCC(=O)N[C@@H](CO)C(=O)N[C@@H](CC(=O)O)C(=O)N[C@H](C(=O)N[C@@H](Cc1ccc(O)cc1)C(N)=O)[C@@H](C)O)C(C)C)[C@@H](C)O [Example 1] (H-K([γGlu-γGlu-C20 diacid])CNTATCATQRLADFLRHSSPNFGAPLSSTNVGSDTY-NH2; disulfide 2-7; N-terminus assumed) |
| 8.8 | 8.8 |  | 8.8 | 8.8 | 8.8 | CC[C@H](C)[C@H](NC(=O)[C@H](C)NC(=O)CNC(=O)[C@H](Cc1ccccc1)NC(=O)[C@H](CC(N)=O)NC(=O)[C@@H]1CCCN1C(=O)[C@H](CO)NC(=O)[C@H](CO)NC(=O)[C@H](Cc1c[nH]cn1)NC(=O)[C@H](CCCNC(=N)N)NC(=O)[C@H](CC(C)C)NC(=O)[C@H](Cc1ccccc1)NC(=O)[C@H](CCC(=O)O)NC(=O)[C@H](C)NC(=O)[C@H](CC(C)C)NC(=O)[C@H](CCCNC(=N)N)NC(=O)[C@H](CCC(N)=O)NC(=O)[C@@H](NC(=O)[C@H](C)NC(=O)[C@@H]1CSSC[C@H](NC(=O)[C@H](CCCCN)NC(=O)CC[C@H](NC(=O)CCCCCCCCCCCCCCCCCCC(=O)O)C(=O)O)C(=O)N[C@@H](CC(N)=O)C(=O)N[C@@H]([C@@H](C)O)C(=O)N[C@@H](C)C(=O)N[C@@H]([C@@H](C)O)C(=O)N1)[C@@H](C)O)C(=O)N1CCC[C@H]1C(=O)N[C@@H](CO)C(=O)N[C@@H](CO)C(=O)N[C@H](C(=O)N[C@@H](CC(N)=O)C(=O)N[C@H](C(=O)NCC(=O)N[C@@H](Cc1c[nH]cn1)C(=O)N[C@@H](CC(N)=O)C(=O)N[C@H](C(=O)N[C@@H](Cc1ccc(O)cc1)C(N)=O)[C@@H](C)O)C(C)C)[C@@H](C)O [Example 17] ({C20 diacid-γGlu}-KCNTATCATQRLAEFLRHSSPNFGAIPSSTNVGHNTY-NH2; disulfide 2-7) |
| 9.2 | 9.2 |  |  | 9.2 | 9.2 | CC[C@H](C)[C@H](NC(=O)[C@H](C)NC(=O)CNC(=O)[C@H](Cc1ccccc1)NC(=O)[C@H](CC(N)=O)NC(=O)[C@@H]1CCCN1C(=O)[C@H](CO)NC(=O)[C@H](CO)NC(=O)[C@H](Cc1c[nH]cn1)NC(=O)[C@H](CCCNC(=N)N)NC(=O)[C@H](CC(C)C)NC(=O)[C@H](Cc1ccccc1)NC(=O)[C@H](CC(N)=O)NC(=O)[C@H](C)NC(=O)[C@H](CC(C)C)NC(=O)[C@H](CCCNC(=N)N)NC(=O)[C@H](CCC(N)=O)NC(=O)[C@@H](NC(=O)[C@H](C)NC(=O)[C@@H]1CSSC[C@H](NC(=O)[C@H](CCCCN)NC(=O)CC[C@H](NC(=O)CCCCCCCCCCCCCCCCCCC(=O)O)C(=O)O)C(=O)N[C@@H](CC(N)=O)C(=O)N[C@@H]([C@@H](C)O)C(=O)N[C@@H](C)C(=O)N[C@@H]([C@@H](C)O)C(=O)N1)[C@@H](C)O)C(=O)N1CCC[C@H]1C(=O)N[C@@H](CO)C(=O)N[C@@H](CO)C(=O)N[C@H](C(=O)N1CCC[C@H]1C(=O)N[C@H](C(=O)NCC(=O)N[C@@H](CO)C(=O)N[C@@H](CCC(=O)O)C(=O)N[C@H](C(=O)N[C@@H](Cc1ccc(O)cc1)C(N)=O)[C@@H](C)O)C(C)C)[C@@H](C)O [Example 28] ({C20 diacid-γGlu}-KCNTATCATQRLANFLRHSSPNFGAIPSSTPVGSETY-NH2; disulfide 2-7) |
| 15.0 | 15.0 |  |  | 15.0 | 15.0 | CC[C@H](C)[C@H](NC(=O)[C@H](C)NC(=O)CNC(=O)[C@H](Cc1ccccc1)NC(=O)[C@H](CC(N)=O)NC(=O)[C@@H]1CCCN1C(=O)[C@H](CO)NC(=O)[C@H](CO)NC(=O)[C@H](Cc1c[nH]cn1)NC(=O)[C@H](CCCNC(=N)N)NC(=O)[C@H](CC(C)C)NC(=O)[C@H](Cc1ccccc1)NC(=O)[C@H](CC(N)=O)NC(=O)[C@H](C)NC(=O)[C@H](CC(C)C)NC(=O)[C@H](CCCNC(=N)N)NC(=O)[C@H](CCC(N)=O)NC(=O)[C@@H](NC(=O)[C@H](C)NC(=O)[C@@H]1CSSC[C@H](NC(=O)[C@@H](N)CCCCNC(=O)CC[C@H](NC(=O)CCCCCCCCCCCCCCCCCCC(=O)O)C(=O)O)C(=O)N[C@@H](CC(N)=O)C(=O)N[C@@H]([C@@H](C)O)C(=O)N[C@@H](C)C(=O)N[C@@H]([C@@H](C)O)C(=O)N1)[C@@H](C)O)C(=O)N1CCC[C@H]1C(=O)N[C@@H](CO)C(=O)N[C@@H](CO)C(=O)N[C@H](C(=O)N[C@@H](CC(N)=O)C(=O)N[C@H](C(=O)NCC(=O)N[C@@H](CO)C(=O)N[C@@H](CCCCN)C(=O)N[C@H](C(=O)N[C@@H](Cc1ccc(O)cc1)C(N)=O)[C@@H](C)O)C(C)C)[C@@H](C)O [Example 35] (H-K([γGlu-C20 diacid])CNTATCATQRLANFLRHSSPNFGAIPSSTNVGSKTY-NH2; disulfide 2-7; N-terminus assumed) |
| 6.5 | 6.5 |  |  | 6.5 | 6.5 | CC[C@H](C)[C@H](NC(=O)[C@H](C)NC(=O)CNC(=O)[C@H](Cc1ccccc1)NC(=O)[C@H](CC(N)=O)NC(=O)[C@@H]1CCCN1C(=O)[C@H](CO)NC(=O)[C@H](CO)NC(=O)[C@H](Cc1c[nH]cn1)NC(=O)[C@H](CCCNC(=N)N)NC(=O)[C@H](CC(C)C)NC(=O)[C@H](Cc1ccccc1)NC(=O)[C@H](CC(N)=O)NC(=O)[C@H](C)NC(=O)[C@H](CC(C)C)NC(=O)[C@H](CCCNC(=N)N)NC(=O)[C@H](CCC(N)=O)NC(=O)[C@@H](NC(=O)[C@H](C)NC(=O)[C@@H]1CSSC[C@H](NC(=O)[C@@H](N)CCCCNC(=O)COCCOCCNC(=O)CCCCCCCCCCCCCCCCCCC(=O)O)C(=O)N[C@@H](CC(N)=O)C(=O)N[C@@H]([C@@H](C)O)C(=O)N[C@@H](C)C(=O)N[C@@H]([C@@H](C)O)C(=O)N1)[C@@H](C)O)C(=O)N1CCC[C@H]1C(=O)N[C@@H](CO)C(=O)N[C@@H](CO)C(=O)N[C@H](C(=O)N[C@@H](CC(N)=O)C(=O)N[C@H](C(=O)NCC(=O)N[C@@H](CO)C(=O)N[C@@H](CC(N)=O)C(=O)N[C@H](C(=O)N[C@@H](Cc1ccc(O)cc1)C(N)=O)[C@@H](C)O)C(C)C)[C@@H](C)O [Example 43] |
| 17.0 | 17.0 |  |  | 17.0 | 17.0 | CC[C@H](C)[C@H](NC(=O)[C@H](C)NC(=O)CNC(=O)[C@H](Cc1ccccc1)NC(=O)[C@H](CC(N)=O)NC(=O)[C@@H]1CCCN1C(=O)[C@H](CO)NC(=O)[C@H](CO)NC(=O)[C@H](Cc1c[nH]cn1)NC(=O)[C@H](CCCNC(=N)N)NC(=O)[C@H](CC(C)C)NC(=O)[C@H](Cc1ccccc1)NC(=O)[C@H](CC(N)=O)NC(=O)[C@H](C)NC(=O)[C@H](CC(C)C)NC(=O)[C@H](CCCNC(=N)N)NC(=O)[C@H](CCC(N)=O)NC(=O)[C@@H](NC(=O)[C@H](C)NC(=O)[C@@H]1CSSC[C@H](NC(=O)[C@@H](N)CCCCNC(=O)CC[C@H](NC(=O)CCCCCCCCCCCCCCCCCCC(=O)O)C(=O)O)C(=O)N[C@@H](CC(N)=O)C(=O)N[C@@H]([C@@H](C)O)C(=O)N[C@@H](C)C(=O)N[C@@H]([C@@H](C)O)C(=O)N1)[C@@H](C)O)C(=O)N1CCC[C@H]1C(=O)N[C@@H](CO)C(=O)N[C@@H](CO)C(=O)N[C@H](C(=O)N[C@@H](CC(N)=O)C(=O)N[C@H](C(=O)NCC(=O)N[C@@H](CO)C(=O)N[C@@H](CC(N)=O)C(=O)N[C@H](C(=O)N[C@@H](Cc1ccc(O)cc1)C(N)=O)[C@@H](C)O)C(C)C)[C@@H](C)O [Example 48] |
